Assay results taken from patent US20090143279A1 (priority 2007, published 2009).
Where two headings read alike, the source gives them in different places.

Key:
[1] = test system: cellular dehydrogenase activity
OXPHOS gene expression = type: cell-based, mouse
cytochrome c = type: cell-based, mouse
nuOXPHOS transcripts = type: cell-based, mouse
mtOXPHOS transcripts = type: cell-based, mouse
[2] = test system: mitochondrial membrane potential; type: cell-based, mouse
reactive oxygen species = type: cell-based, mouse
[3] = Table 4, C2C12 myotubes, 48 h, composite Z-score
[4] = normalized composite Z-score vs mock-treated (DMSO) wells, Conc 20 μM
[5] = Table 4, C2C12 myotubes, 48 h, JC-1, composite Z-score
[6] = composite Z-score vs mock-treated (DMSO) wells, Conc 20 μM
[7] = composite Z-score vs DMSO, Conc 20 μM
[8] = 13.14 μM, composite Z-score vs DMSO
[9] = 20 μM, composite Z-score vs DMSO
[10] = composite Z-score vs DMSO wells, Conc 20 μM
[11] = 7.92 μM, composite Z-score vs DMSO
[12] = composite Z-score vs DMSO, Conc 15.42 μM

cytochrome c, sequence (P62897 whole entry): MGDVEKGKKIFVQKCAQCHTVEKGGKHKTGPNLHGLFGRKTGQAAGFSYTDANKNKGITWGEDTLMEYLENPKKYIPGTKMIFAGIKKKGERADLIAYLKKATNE

## dihydromundulone [reference compound]
[1]; [3]
  MTT: 0.189
[1]; [4]
  MTT: 0.189
OXPHOS gene expression; [4]
  GE-HTS: 0.414
C2C12 myotubes; [3]
  Viability: 0.816
C2C12 myotubes; [4]
  Viability: 0.816
Cytochrome c; [4]
  cyt c: −0.210
nuOXPHOS transcripts; [4]
  nucOX: 0.513
mtOXPHOS transcripts; [4]
  mitoOX: 0.168
[2]; [5]
  ΔΨm: −0.530
[2]; [4]
  ΔΨm: −0.530
Reactive oxygen species; [3]
  ROS: 0.537
Reactive oxygen species; [4]
  ROS: 0.537

## COc1cc(OC)c2c(c1Cl)O[C@@]1(C(=O)CC(=O)C[C@H]1C)C2=O [griseofulvic acid, reference compound]
[1]; [3]
  MTT: −0.469
[1]; [6]
  MTT: −0.469
OXPHOS gene expression; [6]
  GE-HTS: −0.370
C2C12 myotubes; [3]
  Viability: 0.176
C2C12 myotubes; [6]
  Viability: 0.176
Cytochrome c; [6]
  cyt c: 0.724
nuOXPHOS transcripts; [6]
  nucOX: −0.442
mtOXPHOS transcripts; [6]
  mitoOX: −0.209
[2]; [5]
  ΔΨm: −0.666
[2]; [6]
  ΔΨm: −0.666
Reactive oxygen species; [3]
  ROS: −0.323
Reactive oxygen species; [6]
  ROS: −0.323

## COc1cc2c(c(OC)c1OC)-c1ccc(=O)c(O)cc1[C@@H](NC(C)=O)CC2 [colchiceine]
[1]; [7]
  MTT: −3.186
OXPHOS gene expression; [7]
  GE-HTS: 1.832
C2C12 myotubes; [7]
  Viability: −0.333
Cytochrome c; [7]
  cyt c: −0.908
nuOXPHOS transcripts; [7]
  nucOX: 1.935
mtOXPHOS transcripts; [7]
  mitoOX: 1.192
[2]; [7]
  ΔΨm: −0.812
Reactive oxygen species; [7]
  ROS: 0.469

## O=C(O)CCCc1ccc(N(CCCl)CCCl)cc1 [chlorambucil]
[1]; [8]
  MTT: −0.069
[1]; [9]
  MTT: −1.519
OXPHOS gene expression; [8]
  GE-HTS: 0.249
OXPHOS gene expression; [9]
  GE-HTS: 0.725
C2C12 myotubes; [8]
  Viability: −0.507
C2C12 myotubes; [9]
  Viability: −0.007
Cytochrome c; [8]
  cyt c: 0.035
Cytochrome c; [9]
  cyt c: −0.955
nuOXPHOS transcripts; [8]
  nucOX: 0.147
nuOXPHOS transcripts; [9]
  nucOX: 0.360
mtOXPHOS transcripts; [8]
  mitoOX: 0.398
mtOXPHOS transcripts; [9]
  mitoOX: 1.273
[2]; [8]
  ΔΨm: 0.199
[2]; [9]
  ΔΨm: −0.826
Reactive oxygen species; [8]
  ROS: 0.056
Reactive oxygen species; [9]
  ROS: 0.165

## CC(=O)O[C@@H]1C[C@H]2C(C)(C)C(=O)CC[C@]2(C)[C@H]2CC[C@@]3(C)[C@H](c4ccoc4)OC(=O)[C@H]4O[C@]43[C@@]21C [dihydrogedunin]
[1]; [6]
  MTT: −0.017
OXPHOS gene expression; [6]
  GE-HTS: 0.575
C2C12 myotubes; [6]
  Viability: 0.637
Cytochrome c; [6]
  cyt c: 0.460
nuOXPHOS transcripts; [6]
  nucOX: 0.613
mtOXPHOS transcripts; [6]
  mitoOX: 0.323
[2]; [6]
  ΔΨm: 1.079
Reactive oxygen species; [6]
  ROS: −0.690

## CC(=O)Nc1ccc(OC(=O)c2ccccc2O)cc1 [acetaminosalol]
[1]; [10]
  MTT: −0.142
OXPHOS gene expression; [10]
  GE-HTS: 0.083
C2C12 myotubes; [10]
  Viability: 0.144
Cytochrome c; [10]
  cyt c: 0.465
nuOXPHOS transcripts; [10]
  nucOX: 0.145
mtOXPHOS transcripts; [10]
  mitoOX: −0.060
[2]; [10]
  ΔΨm: −0.707
Reactive oxygen species; [10]
  ROS: 0.308

## [H]/N=C(\N/C(=N/[H])NCCCCCCNC(=N)NC(=N)Nc1ccc(Cl)cc1)Nc1ccc(Cl)cc1 [chlorhexidine]
[1]; [11]
  MTT: −4.138
[1]; [9]
  MTT: −2.340
OXPHOS gene expression; [11]
  GE-HTS: 0.775
OXPHOS gene expression; [9]
  GE-HTS: −0.455
C2C12 myotubes; [11]
  Viability: −1.859
C2C12 myotubes; [9]
  Viability: −0.976
Cytochrome c; [11]
  cyt c: 0.090
Cytochrome c; [9]
  cyt c: −1.683
nuOXPHOS transcripts; [11]
  nucOX: 0.990
nuOXPHOS transcripts; [9]
  nucOX: −0.592
mtOXPHOS transcripts; [11]
  mitoOX: 0.140
mtOXPHOS transcripts; [9]
  mitoOX: −0.141
[2]; [11]
  ΔΨm: 0.348
[2]; [9]
  ΔΨm: 0.412
Reactive oxygen species; [11]
  ROS: −2.490
Reactive oxygen species; [9]
  ROS: 1.660

## Cc1cc(=O)[nH]c(=S)[nH]1 [methylthiouracil]
[1]; [9]
  MTT: −0.633
OXPHOS gene expression; [9]
  GE-HTS: −0.029
C2C12 myotubes; [9]
  Viability: −0.235
Cytochrome c; [9]
  cyt c: 0.846
nuOXPHOS transcripts; [9]
  nucOX: 0.146
mtOXPHOS transcripts; [9]
  mitoOX: −0.302
[2]; [9]
  ΔΨm: −0.553
Reactive oxygen species; [9]
  ROS: 0.815

## CC(=O)O[C@]1(C)CC[C@@]23C[C@@H]1C(C)(C)[C@@H]2CC[C@H]3C [cedryl acetate]
[1]; [4]
  MTT: −0.176
OXPHOS gene expression; [4]
  GE-HTS: 0.067
C2C12 myotubes; [4]
  Viability: −0.311
Cytochrome c; [4]
  cyt c: 0.388
nuOXPHOS transcripts; [4]
  nucOX: 0.184
mtOXPHOS transcripts; [4]
  mitoOX: −0.149
[2]; [4]
  ΔΨm: −0.042
Reactive oxygen species; [4]
  ROS: 1.566

## CC(C)NC[C@H](O)COc1cccc2ccccc12 [(S)-propranolol]
[1]; [12]
  MTT: −0.351
OXPHOS gene expression; [12]
  GE-HTS: 0.857
C2C12 myotubes; [12]
  Viability: 0.307
Cytochrome c; [12]
  cyt c: 0.349
nuOXPHOS transcripts; [12]
  nucOX: 0.623
mtOXPHOS transcripts; [12]
  mitoOX: 1.161
[2]; [12]
  ΔΨm: −0.340
Reactive oxygen species; [12]
  ROS: −0.185

## C[C@H](CCC(=O)O)[C@H]1CC[C@H]2[C@@H]3CC[C@@H]4CCCC[C@]4(C)[C@H]3CC[C@]12C [ursocholanic acid]
[1]; [7]
  MTT: −0.246
OXPHOS gene expression; [7]
  GE-HTS: −0.920
C2C12 myotubes; [7]
  Viability: 0.050
Cytochrome c; [7]
  cyt c: 1.303
nuOXPHOS transcripts; [7]
  nucOX: −0.946
mtOXPHOS transcripts; [7]
  mitoOX: −0.657
[2]; [7]
  ΔΨm: −1.738
Reactive oxygen species; [7]
  ROS: 0.978

## CC1=CC(=O)CC(C)(C)[C@@]1(O)/C=C/C(C)=C\C(=O)O [abscisic acid]
[1]; [4]
  MTT: −1.053
OXPHOS gene expression; [4]
  GE-HTS: 0.469
C2C12 myotubes; [4]
  Viability: 0.309
Cytochrome c; [4]
  cyt c: 0.179
nuOXPHOS transcripts; [4]
  nucOX: 0.509
mtOXPHOS transcripts; [4]
  mitoOX: 0.299
[2]; [4]
  ΔΨm: −0.565
Reactive oxygen species; [4]
  ROS: −0.476
